{"source": "ChEMBL document CHEMBL2440005", "about": "“Discovery and structure-activity relationships of 6-(benzoylamino)benzoxaboroles as orally active anti-inflammatory agents” (Bioorg Med Chem Lett, 2013)", "key": {"[1]": {"biological_target": "Rho-associated protein kinase 1 (Homo sapiens) (UniProt Q13464)", "test": "Inhibition of ROCK1 (unknown origin) at 30 uM"}, "Homo sapiens": {"species_on_record": "Homo sapiens", "test": "Inhibition of PKA (unknown origin) at 30 uM"}, "[2]": {"biological_target": "Tyrosine-protein kinase JAK3 (Homo sapiens) (UniProt P52333)", "test": "Inhibition of JAK3 (unknown origin) at 30 uM"}, "[3]": {"biological_target": "Tyrosine-protein kinase JAK1 (Homo sapiens) (UniProt P23458)", "test": "Inhibition of JAK1 (unknown origin) at 30 uM"}, "[4]": {"biological_target": "Mitogen-activated protein kinase 10 (Homo sapiens) (UniProt P53779)", "sequence (P53779 whole entry)": "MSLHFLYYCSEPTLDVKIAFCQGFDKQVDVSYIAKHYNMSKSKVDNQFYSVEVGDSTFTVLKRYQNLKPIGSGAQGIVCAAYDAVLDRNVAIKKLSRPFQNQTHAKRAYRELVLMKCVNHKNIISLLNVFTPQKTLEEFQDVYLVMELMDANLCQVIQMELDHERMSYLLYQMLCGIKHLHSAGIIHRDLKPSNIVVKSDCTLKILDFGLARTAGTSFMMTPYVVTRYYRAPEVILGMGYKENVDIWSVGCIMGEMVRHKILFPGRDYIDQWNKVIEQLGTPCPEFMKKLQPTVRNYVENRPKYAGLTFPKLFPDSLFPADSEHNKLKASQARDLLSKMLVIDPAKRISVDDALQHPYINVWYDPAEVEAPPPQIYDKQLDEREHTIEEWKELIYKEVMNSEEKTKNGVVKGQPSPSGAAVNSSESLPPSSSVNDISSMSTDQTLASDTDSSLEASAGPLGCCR", "test": "Inhibition of JNK3 (unknown origin) at 30 uM"}, "[5]": {"biological_target": "Phosphatidylinositol 4,5-bisphosphate 3-kinase catalytic subunit delta isoform (Homo sapiens) (UniProt O00329)", "test": "Inhibition of PI3Kdelta (unknown origin) at 30 uM"}, "[6]": {"biological_target": "Mitogen-activated protein kinase 9 (Homo sapiens) (UniProt P45984)", "test": "Inhibition of JNK2 (unknown origin) at 30 uM"}, "[7]": {"biological_target": "Phosphatidylinositol 4,5-bisphosphate 3-kinase catalytic subunit gamma isoform (Homo sapiens) (UniProt P48736)", "test": "Inhibition of PI3Kgamma (unknown origin) at 30 uM"}, "[8]": {"biological_target": "Phosphatidylinositol 4,5-bisphosphate 3-kinase catalytic subunit alpha isoform (Homo sapiens) (UniProt P42336)", "test": "Inhibition of PI3Kalpha (unknown origin) at 30 uM"}, "[9]": {"biological_target": "RAC-beta serine/threonine-protein kinase (Homo sapiens) (UniProt P31751)", "sequence (P31751 whole entry)": "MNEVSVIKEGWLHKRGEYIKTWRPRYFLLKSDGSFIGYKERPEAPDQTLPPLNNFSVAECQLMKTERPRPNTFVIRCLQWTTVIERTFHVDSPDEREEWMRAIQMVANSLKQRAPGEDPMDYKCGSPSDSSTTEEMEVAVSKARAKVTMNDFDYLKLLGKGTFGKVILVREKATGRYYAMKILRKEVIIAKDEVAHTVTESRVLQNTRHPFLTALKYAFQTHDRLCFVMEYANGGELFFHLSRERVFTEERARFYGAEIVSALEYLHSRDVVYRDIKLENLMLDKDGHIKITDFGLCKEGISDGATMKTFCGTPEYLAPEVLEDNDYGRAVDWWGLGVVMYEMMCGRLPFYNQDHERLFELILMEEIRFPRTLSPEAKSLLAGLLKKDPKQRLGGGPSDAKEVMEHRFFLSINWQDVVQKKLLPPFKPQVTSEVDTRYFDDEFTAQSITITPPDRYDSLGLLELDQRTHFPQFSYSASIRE", "test": "Inhibition of AKT2 (unknown origin) at 30 uM"}, "[10]": {"biological_target": "RAC-gamma serine/threonine-protein kinase (Homo sapiens) (UniProt Q9Y243)", "test": "Inhibition of AKT3 (unknown origin) at 30 uM"}, "[11]": {"biological_target": "Inhibitor of nuclear factor kappa-B kinase subunit epsilon (Homo sapiens) (UniProt Q14164)", "sequence (Q14164 whole entry)": "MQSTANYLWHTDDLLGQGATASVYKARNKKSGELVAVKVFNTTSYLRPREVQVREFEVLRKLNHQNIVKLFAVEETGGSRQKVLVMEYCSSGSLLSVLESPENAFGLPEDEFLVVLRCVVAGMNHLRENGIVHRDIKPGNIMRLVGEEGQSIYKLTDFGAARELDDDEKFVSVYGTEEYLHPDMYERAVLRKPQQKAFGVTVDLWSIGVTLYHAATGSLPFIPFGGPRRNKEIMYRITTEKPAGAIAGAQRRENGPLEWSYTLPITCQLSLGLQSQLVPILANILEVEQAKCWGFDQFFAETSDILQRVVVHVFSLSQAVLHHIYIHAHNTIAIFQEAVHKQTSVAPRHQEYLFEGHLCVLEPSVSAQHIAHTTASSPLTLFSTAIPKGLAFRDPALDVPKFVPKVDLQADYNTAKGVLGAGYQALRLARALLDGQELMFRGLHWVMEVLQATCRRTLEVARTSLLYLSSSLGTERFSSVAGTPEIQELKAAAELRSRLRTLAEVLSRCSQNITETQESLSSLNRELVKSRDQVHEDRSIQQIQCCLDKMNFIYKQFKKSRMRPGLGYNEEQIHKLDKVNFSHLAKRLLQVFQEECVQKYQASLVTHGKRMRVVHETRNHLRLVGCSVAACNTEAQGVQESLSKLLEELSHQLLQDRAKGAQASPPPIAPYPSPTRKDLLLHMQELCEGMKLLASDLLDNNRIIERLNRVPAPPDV", "test": "Inhibition of IKKepsilon (unknown origin) at 30 uM"}, "[12]": {"biological_target": "RAC-alpha serine/threonine-protein kinase (Homo sapiens) (UniProt P31749)", "test": "Inhibition of AKT1 (unknown origin) at 30 uM"}, "[13]": {"biological_target": "Inhibitor of nuclear factor kappa-B kinase subunit alpha (Homo sapiens) (UniProt O15111)", "test": "Inhibition of IKKalpha (unknown origin) at 30 uM"}, "[14]": {"biological_target": "Inhibitor of nuclear factor kappa-B kinase subunit beta (Homo sapiens) (UniProt O14920)", "sequence (O14920 whole entry)": "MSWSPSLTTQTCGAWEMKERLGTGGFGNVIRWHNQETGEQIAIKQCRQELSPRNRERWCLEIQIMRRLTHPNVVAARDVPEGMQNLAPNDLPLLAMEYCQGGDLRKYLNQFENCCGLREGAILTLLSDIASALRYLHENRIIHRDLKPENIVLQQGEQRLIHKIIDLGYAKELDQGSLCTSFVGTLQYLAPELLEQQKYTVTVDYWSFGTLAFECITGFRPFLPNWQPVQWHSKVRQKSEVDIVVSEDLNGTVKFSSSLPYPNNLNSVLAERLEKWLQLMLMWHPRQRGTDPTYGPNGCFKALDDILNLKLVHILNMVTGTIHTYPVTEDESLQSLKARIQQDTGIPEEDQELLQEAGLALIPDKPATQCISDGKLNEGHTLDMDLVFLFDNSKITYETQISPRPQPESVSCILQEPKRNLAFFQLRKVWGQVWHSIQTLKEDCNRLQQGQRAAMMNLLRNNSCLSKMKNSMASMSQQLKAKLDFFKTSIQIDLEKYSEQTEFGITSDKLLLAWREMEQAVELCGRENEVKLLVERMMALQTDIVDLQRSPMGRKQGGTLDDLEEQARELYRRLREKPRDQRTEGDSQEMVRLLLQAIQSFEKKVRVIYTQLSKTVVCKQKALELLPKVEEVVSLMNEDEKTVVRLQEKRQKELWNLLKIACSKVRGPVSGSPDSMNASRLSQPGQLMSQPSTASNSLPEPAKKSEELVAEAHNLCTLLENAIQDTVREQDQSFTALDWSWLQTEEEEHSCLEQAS", "test": "Inhibition of IKKbeta (unknown origin) at 30 uM"}, "[15]": {"biological_target": "Mitogen-activated protein kinase 3 (Homo sapiens) (UniProt P27361)", "sequence (P27361 whole entry)": "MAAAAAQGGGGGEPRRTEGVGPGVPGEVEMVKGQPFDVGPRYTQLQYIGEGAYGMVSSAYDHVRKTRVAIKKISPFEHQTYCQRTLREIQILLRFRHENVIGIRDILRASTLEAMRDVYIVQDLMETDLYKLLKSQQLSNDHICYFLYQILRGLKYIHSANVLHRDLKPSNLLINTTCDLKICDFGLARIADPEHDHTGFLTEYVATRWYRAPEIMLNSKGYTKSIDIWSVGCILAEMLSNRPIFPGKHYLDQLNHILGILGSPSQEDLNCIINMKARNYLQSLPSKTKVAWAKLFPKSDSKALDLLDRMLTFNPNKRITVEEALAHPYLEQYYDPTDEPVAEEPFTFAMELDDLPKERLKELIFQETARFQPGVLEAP", "test": "Inhibition of ERK1 (unknown origin) at 30 uM"}, "[16]": {"biological_target": "Mitogen-activated protein kinase 1 (Homo sapiens) (UniProt P28482)", "test": "Inhibition of ERK2 (unknown origin) at 30 uM"}, "[17]": {"biological_target": "MAP kinase-activated protein kinase 3 (Homo sapiens) (UniProt Q16644)", "sequence (Q16644 whole entry, looked up)": "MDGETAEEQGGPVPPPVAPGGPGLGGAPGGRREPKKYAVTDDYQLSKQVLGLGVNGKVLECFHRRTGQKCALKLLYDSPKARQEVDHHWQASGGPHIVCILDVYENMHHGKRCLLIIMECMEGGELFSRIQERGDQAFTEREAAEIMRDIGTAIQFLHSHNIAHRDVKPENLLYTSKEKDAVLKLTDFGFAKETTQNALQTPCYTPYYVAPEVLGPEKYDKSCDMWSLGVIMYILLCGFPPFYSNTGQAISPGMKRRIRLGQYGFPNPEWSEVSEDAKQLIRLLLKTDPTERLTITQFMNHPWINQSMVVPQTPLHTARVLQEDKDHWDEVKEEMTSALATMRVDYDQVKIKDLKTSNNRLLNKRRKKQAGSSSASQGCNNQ", "test": "Inhibition of MAPKAPK3 (unknown origin) at 30 uM"}, "[18]": {"biological_target": "Mitogen-activated protein kinase 13 (Homo sapiens) (UniProt O15264)", "test": "Inhibition of p38delta (unknown origin) at 30 uM"}, "[19]": {"biological_target": "MAP kinase-activated protein kinase 2 (Homo sapiens) (UniProt P49137)", "sequence (P49137 whole entry, looked up)": "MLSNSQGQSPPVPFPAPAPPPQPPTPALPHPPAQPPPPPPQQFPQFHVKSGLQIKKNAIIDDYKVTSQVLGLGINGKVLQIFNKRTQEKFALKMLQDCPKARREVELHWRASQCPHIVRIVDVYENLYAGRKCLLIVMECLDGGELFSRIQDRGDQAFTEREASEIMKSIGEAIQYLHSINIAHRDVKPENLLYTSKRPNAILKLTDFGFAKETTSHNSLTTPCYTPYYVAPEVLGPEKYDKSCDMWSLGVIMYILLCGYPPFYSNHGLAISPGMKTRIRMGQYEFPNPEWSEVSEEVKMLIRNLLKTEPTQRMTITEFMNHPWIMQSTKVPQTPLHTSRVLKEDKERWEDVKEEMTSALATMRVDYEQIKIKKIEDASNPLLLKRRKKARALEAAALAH", "test": "Inhibition of MAPKAPK2 (unknown origin) at 30 uM"}, "[20]": {"biological_target": "Mitogen-activated protein kinase 12 (Homo sapiens) (UniProt P53778)", "test": "Inhibition of p38gamma (unknown origin) at 30 uM"}, "[21]": {"biological_target": "Mitogen-activated protein kinase 14 (Homo sapiens) (UniProt Q16539)", "test": "Inhibition of p38alpha (unknown origin) at 30 uM"}, "[22]": {"biological_target": "Dual specificity mitogen-activated protein kinase kinase 2 (Homo sapiens) (UniProt P36507)", "test": "Inhibition of MEK2 (unknown origin) at 30 uM"}, "[23]": {"biological_target": "Dual specificity mitogen-activated protein kinase kinase 4 (Homo sapiens) (UniProt P45985)", "test": "Inhibition of MKK4 (unknown origin) at 30 uM"}, "[24]": {"biological_target": "Mitogen-activated protein kinase kinase kinase 7 (Homo sapiens) (UniProt O43318)", "test": "Inhibition of TAK1 (unknown origin) at 30 uM"}, "[25]": {"biological_target": "Serine/threonine-protein kinase TBK1 (Homo sapiens) (UniProt Q9UHD2)", "sequence (Q9UHD2 whole entry)": "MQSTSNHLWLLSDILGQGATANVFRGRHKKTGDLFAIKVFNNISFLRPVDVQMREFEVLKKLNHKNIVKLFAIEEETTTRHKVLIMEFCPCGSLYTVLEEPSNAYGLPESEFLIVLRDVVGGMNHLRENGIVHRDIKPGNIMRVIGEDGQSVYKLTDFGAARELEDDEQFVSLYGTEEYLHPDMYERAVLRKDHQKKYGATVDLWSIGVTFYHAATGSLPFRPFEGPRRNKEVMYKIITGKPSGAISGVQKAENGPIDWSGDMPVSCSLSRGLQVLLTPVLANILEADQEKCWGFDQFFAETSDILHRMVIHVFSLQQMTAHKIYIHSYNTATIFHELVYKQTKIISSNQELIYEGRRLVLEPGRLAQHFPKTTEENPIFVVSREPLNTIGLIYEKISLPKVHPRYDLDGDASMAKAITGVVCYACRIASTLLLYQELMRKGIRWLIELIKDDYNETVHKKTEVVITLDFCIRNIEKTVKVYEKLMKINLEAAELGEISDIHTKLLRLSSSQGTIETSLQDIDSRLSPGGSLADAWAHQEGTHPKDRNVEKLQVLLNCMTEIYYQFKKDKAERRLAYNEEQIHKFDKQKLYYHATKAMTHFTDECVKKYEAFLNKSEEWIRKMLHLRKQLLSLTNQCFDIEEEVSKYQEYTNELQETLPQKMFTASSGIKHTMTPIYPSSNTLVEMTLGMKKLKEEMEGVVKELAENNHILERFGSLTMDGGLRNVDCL", "test": "Inhibition of TBK1 (unknown origin) at 30 uM"}, "[26]": {"biological_target": "Interleukin-1 receptor-associated kinase 4 (Homo sapiens) (UniProt Q9NWZ3)", "sequence (Q9NWZ3 whole entry)": "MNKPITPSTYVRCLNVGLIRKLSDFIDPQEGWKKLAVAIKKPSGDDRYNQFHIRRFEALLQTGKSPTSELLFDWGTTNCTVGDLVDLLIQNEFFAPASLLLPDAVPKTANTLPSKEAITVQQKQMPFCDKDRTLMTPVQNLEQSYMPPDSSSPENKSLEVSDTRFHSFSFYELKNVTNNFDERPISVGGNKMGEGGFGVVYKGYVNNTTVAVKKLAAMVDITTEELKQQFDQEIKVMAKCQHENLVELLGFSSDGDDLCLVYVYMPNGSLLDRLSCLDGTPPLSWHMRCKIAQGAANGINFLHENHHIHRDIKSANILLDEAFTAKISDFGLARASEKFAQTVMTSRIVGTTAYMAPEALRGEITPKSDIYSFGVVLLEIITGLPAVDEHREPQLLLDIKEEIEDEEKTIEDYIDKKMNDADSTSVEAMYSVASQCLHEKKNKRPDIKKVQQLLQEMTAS", "test": "Inhibition of IRAK4 (unknown origin) at 30 uM"}, "PBMC [27]": {"tested_on": "PBMC", "test": "Cytotoxicity against LPS-stimulated human PBMC assessed as growth inhibition by MTT assay", "type": "cell-based"}, "Mus musculus [28]": {"tested_on": "Mus musculus", "test": "Toxicity in mouse assessed as change in body weight at 30 mg/kg, po qd administered every other day for 20 days relative to untreated control", "type": "organism-based", "parameters": "dose 30 mg/kg, route oral", "conditions": "in vivo, 480 h"}, "Mus musculus [29]": {"tested_on": "Mus musculus", "test": "Antiinflammatory activity in collagen-induced arthritis mouse model at 30 mg/kg, po qd administered every other day for 20 days relative to vehicle-treated control", "type": "functional", "conditions": "480 h"}, "Mus musculus [30]": {"tested_on": "Mus musculus", "test": "Antiinflammatory activity in mouse assessed as inhibition of LPS-induced IL-6 production at 100 mg/kg, po administered 1 hr prior to LPS challenge measured after 1 hr", "type": "functional, organism-based", "parameters": "dose 100 mg/kg"}, "Mus musculus [31]": {"tested_on": "Mus musculus", "test": "Antiinflammatory activity in mouse assessed as inhibition of LPS-induced IL-6 production at 10 mg/kg, po administered 1 hr prior to LPS challenge measured after 1 hr", "type": "functional"}, "Mus musculus [32]": {"tested_on": "Mus musculus", "test": "Antiinflammatory activity in mouse assessed as inhibition of LPS-induced TNF-alpha production at 10 mg/kg, po administered 1 hr prior to LPS challenge measured after 1 hr", "type": "functional"}, "Mus musculus [33]": {"tested_on": "Mus musculus", "test": "Antiinflammatory activity in po dosed mouse assessed as inhibition of LPS-induced TNF-alpha production administered 1 hr prior to LPS challenge measured after 1 hr", "type": "functional, organism-based"}, "[34]": {"test": "Terminal half life in mouse at 4 mg/kg, po", "type": "ADME, organism-based", "parameters": "dose 4 mg/kg, route oral", "conditions": "in vivo, read-out: beta t1/2 (converted)"}, "[35]": {"test": "AUC (0 to 24 hrs) in mouse at 4 mg/kg, po", "type": "ADME, organism-based", "parameters": "time < 24 hr, dose 4 mg/kg, route oral", "conditions": "plasma"}, "[36]": {"test": "Tmax in mouse at 4 mg/kg, po", "type": "ADME, organism-based", "parameters": "dose 4 mg/kg, route oral", "conditions": "in vivo"}, "[37]": {"test": "AUC (0 to 24 hrs) in mouse at 2 mg/kg, iv", "type": "ADME, organism-based", "parameters": "time < 24 hr, dose 2 mg/kg, route intravenous", "conditions": "plasma"}, "PBMC [38]": {"tested_on": "PBMC", "test": "Antiinflammatory activity in human PBMC assessed as inhibition of LPS-induced IL-6 release incubated for 15 mins prior to LPS-challenge measured after 24 hrs by HTRF assay", "type": "functional, cell-based"}, "PBMC [39]": {"tested_on": "PBMC", "test": "Antiinflammatory activity in human PBMC assessed as inhibition of LPS-induced TNFalpha release incubated for 15 mins prior to LPS-challenge measured after 24 hrs by HTRF assay", "type": "functional, cell-based"}, "Mus musculus [40]": {"tested_on": "Mus musculus", "test": "Antiinflammatory activity in mouse assessed as inhibition of LPS-induced TNF-alpha production at 30 mg/kg, po administered 1 hr prior to LPS challenge measured after 1 hr", "type": "functional"}, "Mus musculus [41]": {"tested_on": "Mus musculus", "test": "Antiinflammatory activity in mouse assessed as inhibition of LPS-induced IL-6 production at 30 mg/kg, po administered 1 hr prior to LPS challenge measured after 1 hr", "type": "functional"}, "Mus musculus [42]": {"tested_on": "Mus musculus", "test": "Antiinflammatory activity in mouse assessed as inhibition of LPS-induced TNF-alpha production at 100 mg/kg, po administered 1 hr prior to LPS challenge measured after 1 hr", "type": "functional, organism-based", "parameters": "dose 100 mg/kg"}}, "note": "Calls of active or inactive are those of the source. The rule behind the calls is not given here."}
{"smiles": "O=C(Nc1ccc2c(c1)B(O)OC2)c1c(C(F)(F)F)ccc(Cl)c1F", "values": [{"measurement": "inhibition", "setting": "[1]", "result": "inactive"}, {"measurement": "inhibition", "setting": "Homo sapiens", "result": "inactive"}, {"measurement": "inhibition", "setting": "[2]", "result": "inactive"}, {"measurement": "inhibition", "setting": "[3]", "result": "inactive"}, {"measurement": "inhibition", "setting": "[4]", "result": "inactive"}, {"measurement": "inhibition", "setting": "[5]", "result": "inactive"}, {"measurement": "inhibition", "setting": "[6]", "result": "inactive"}, {"measurement": "inhibition", "setting": "[7]", "result": "inactive"}, {"measurement": "inhibition", "setting": "[8]", "result": "inactive"}, {"measurement": "inhibition", "setting": "[9]", "result": "inactive"}, {"measurement": "inhibition", "setting": "[10]", "result": "inactive"}, {"measurement": "inhibition", "setting": "[11]", "result": "inactive"}, {"measurement": "inhibition", "setting": "[12]", "result": "inactive"}, {"measurement": "inhibition", "setting": "[13]", "result": "inactive"}, {"measurement": "inhibition", "setting": "[14]", "result": "inactive"}, {"measurement": "inhibition", "setting": "[15]", "result": "inactive"}, {"measurement": "inhibition", "setting": "[16]", "result": "inactive"}, {"measurement": "inhibition", "setting": "[17]", "result": "inactive"}, {"measurement": "inhibition", "setting": "[18]", "result": "inactive"}, {"measurement": "inhibition", "setting": "[19]", "result": "inactive"}, {"measurement": "inhibition", "setting": "[20]", "result": "inactive"}, {"measurement": "inhibition", "setting": "[21]", "result": "inactive"}, {"measurement": "inhibition", "setting": "[22]", "result": "inactive"}, {"measurement": "inhibition", "setting": "[23]", "result": "inactive"}, {"measurement": "inhibition", "setting": "[24]", "result": "inactive"}, {"measurement": "inhibition", "setting": "[25]", "result": "inactive"}, {"measurement": "inhibition", "setting": "[26]", "result": "inactive"}, {"measurement": "IC50", "setting": "PBMC [27]", "result": "> 100000", "unit": "nM"}, {"measurement": "Activity", "setting": "Mus musculus [28]", "result": "Non-toxic"}, {"measurement": "inhibition in vivo at 30 mg/kg", "setting": "Mus musculus [29]", "result": 68, "unit": "%"}, {"measurement": "inhibition", "setting": "Mus musculus [30]", "result": "Active"}, {"measurement": "inhibition in vivo at 10 mg/kg", "setting": "Mus musculus [31]", "result": 75, "unit": "%"}, {"measurement": "inhibition in vivo at 10 mg/kg", "setting": "Mus musculus [32]", "result": 60, "unit": "%"}, {"measurement": "inhibition", "setting": "Mus musculus [33]", "result": "Dose-dependent effect"}, {"measurement": "half-life", "setting": "[34]", "result": 13.3, "unit": "h"}, {"measurement": "AUC(0-t) at 24 h", "setting": "[35]", "result": 70100, "unit": "ng·h/mL"}, {"measurement": "Tmax", "setting": "[36]", "result": 4, "unit": "h"}, {"measurement": "AUC(0-t) at 24 h", "setting": "[37]", "result": 43400, "unit": "ng·h/mL"}, {"measurement": "IC50", "setting": "PBMC [38]", "result": 320, "unit": "nM"}, {"measurement": "IC50", "setting": "PBMC [39]", "result": 500, "unit": "nM"}, {"measurement": "inhibition in vivo at 30 mg/kg", "setting": "Mus musculus [40]", "result": 80, "unit": "%"}, {"measurement": "inhibition in vivo at 30 mg/kg", "setting": "Mus musculus [41]", "result": 95, "unit": "%"}, {"measurement": "inhibition", "setting": "Mus musculus [42]", "result": "Active"}]}
